Structures can show the parent of a compound that is named as a salt.

One test deals with VCAM-1. The experiment in a line: VCAM-1 assay with ELISA readout (Examples 5-6). It is filed as cell-based. The following applies: 16 h, TNF added with compound, incubated overnight (approximately 16 hours). How it is done: Two to four confluent P150 plates are trypsinized and the cells transferred to a 50 mL conical centrifuge tube. The cells are pelleted, resuspended, and counted using the trypan blue exclusion method.
Cells are resuspended at a concentration of 36,000 cells/mL and 1 mL is aliquoted per well.
Cells are split into 24 well tissue culture plates. The cells in each well should be approximately 90-95% confluent by the following day. Cells should not be older than passage 8.
Compounds are initially screened at 50 μM and 10 μM. A 50 mM stock solution for each compound is prepared in culture medium. The stock solution is diluted to 5 mM and 1 mM. When 10 μL of the 5 mM solution is added to the well (1 mL medium/well), the final concentration will be 50 μM. Adding 10 μL of the 1 mM solution to the well will give a final concentration of 10 μM.
Compounds which will not go into solution in culture medium are resuspended in DMSO at a concentration of 25 mM. The stock solution is then diluted to the final concentration in culture medium. The old medium is aspirated and 1 mL of the new medium with the compound is added. For example, if the final concentration is 50 µM, the 2 μL of the 25 mM stock is added per mL of culture medium. The […] solution is diluted for lower concentrations.
The compounds are added to the plate (each compound is done in duplicate). One plate is done for VCAM expression and one plate is done for ICAM expression.
Immediately after the compounds are added, TNF is added to each well. 100 units/mL TNF is usually added to each well. Since each lot of TNF varies in the number of units, each new lot is titrated to determine the optimum concentration. Therefore this concentration will change. If 100 units/mL is being used, dilute the TNF to 10 units/μL and add 10 μL to each well.
The plates are incubated at 37° C., 5% CO2 overnight (approximately 16 hours). The next day the plates are checked under the microscope to see if there are any visual signs of toxicity. Records are made of any cell death, debris, or morphology changes, as well as insoluble compounds (particulate or turbity).
In order to assess MCP-1, the media (500 μL) is saved and frozen at −70° C. Wash cells once with roughly 1 ml/well of Hanks Balance Salt Solution (HBSS) or PBS. Gently empty the wash solution and then tap the plate onto paper towels. Add either 250 μL/well of HBSS+5% FCCS to the plank (no primary antibody wells) or 250 μL/well of primary antibody diluted in HBSS+5% FCS. Incubate for 30 minutes at 37° C. Wash the wells twice with 0.5 mL/well HBSS or PBS and gently tap the plates onto paper towels after the last wash. Add 250 μL/well of HRP-conjugated second antibody diluted in HBSS+5% FCS to every well including the blank wells (no primary antibody). Incubate at 37° C. for 30 minutes. Wash the wells four times with 0.5 mL/well HBSS or PBS and gently tap the plates onto paper towels after the last wash. Add 250 μL/well of substrate solution. Incubate at room temperature in the dark until there is adequate color development (blue). Note the length of time incubation was performed (typically 15-30 minutes). Add 75 μL/well stopper solution (8N sulfuric acid), and read at 450 nm.
(ELISA stands for enzyme-linked immunosorbent assay.)
In the case of `CC(C)(CO)CC(=O)Oc1c(C(C)(C)C)cc(SC(C)(C)Sc2cc(C(C)(C)C)c(O)c(C(C)(C)C)c2)cc1C(C)(C)C` [Butanoic acid, 4-hydroxy-3,3-dimethyl-, 4-[[1-[[3,5-bis(1,1-dimethylethyl)-4-hydroxyphenyl]thio]-1-methylethyl]thio]-2,6-bis(1,1-dimethylethyl)phenyl ester], the IC50 was 110 µM. In the case of `CC(C)(Sc1ccc(OCCCC(=O)O)cc1)Sc1cc(C(C)(C)C)c(O)c(C(C)(C)C)c1` [Butanoic acid, 4-[4-[[1-[[3,5-bis(1,1-dimethylethyl)-4-hydroxyphenyl]thio]-1-methylethyl]thio]phenoxy]-], the concentration for half-maximal inhibition (IC50) amounted to 19 µM.

In the case of `C=CC(=O)OCCCCOc1c(C(C)(C)C)cc(SC(C)(C)Sc2cc(C(C)(C)C)c(O)c(C(C)(C)C)c2)cc1C(C)(C)C` [2-Propenoic acid, 4-[4-[[1-[[3,5-bis(1,1-dimethylethyl)-4-hydroxyphenyl]thio]-1-methylethyl]thio]-2,6-bis(1,1-dimethylethyl)phenoxy]butyl ester], the IC50 turned out to be 75 µM. On to `CC(C)(Sc1cc(C(C)(C)C)c(O)c(C(C)(C)C)c1)Sc1cc(C(C)(C)C)c(OCC(=O)O)c(C(C)(C)C)c1` [Acetic acid, [4-[[1-[[3,5-bis(1,1-dimethylethyl)-4-hydroxyphenyl]thio]-1-methylethyl]thio]2,6-bis(1,1-dimethylethyl)phenoxy]-], for which the half-inhibitory concentration (IC50) was 10 µM.

As for `CC(C)(Sc1ccc(OCCCCN)cc1)Sc1cc(C(C)(C)C)c(O)c(C(C)(C)C)c1` [Phenol, 4-[[1-[[4-(4-aminobutoxy)phenyl]thio]-1-methylethyl]thio]-2,6-bis(1,1-dimethylethyl)-], the IC50 was determined as 5 µM. For `CC(C)(Sc1cc(C(C)(C)C)c(O)c(C(C)(C)C)c1)Sc1cc(C(C)(C)C)c(OC=CCO)c(C(C)(C)C)c1` [Phenol, 4-[[1-[[3,5-bis(1,1-dimethylethyl)-4-[[3-hydroxy-1-propenyl)oxy]phenyl]thio]-1-methylethyl]thio]-2,6-bis(1,1-dimethylethyl)-], the concentration for half-maximal inhibition (IC50) came out at 55 µM.

With `CN(C)c1ccc(CCOc2c(C(C)(C)C)cc(SC(C)(C)Sc3cc(C(C)(C)C)c(O)c(C(C)(C)C)c3)cc2C(C)(C)C)cc1` [Phenol, 4-[[1-[[4-[2-[4-(dimethylamino)phenyl]ethoxy]-3,5-bis(1,1-dimethylethyl)phenyl]thio]-1-methylethyl]thio]-2,6-bis(1,1-dimethylethyl)-], the IC50 was 55 µM. Still for that read-out and setting: for `CC(C)(Sc1cc(C(C)(C)C)c(O)c(C(C)(C)C)c1)Sc1cc(C(C)(C)C)c(OCCCCN)c(C(C)(C)C)c1` [Phenol, 4-[[1-[[4-(4-aminobutoxy)-3,5-bis(1,1-dimethylethyl)phenyl]thio]-1-methylethyl]thio]2,6-bis(1,1-dimethylethyl)-] the value was 8 µM; for `CC(C)(Sc1cc(C(C)(C)C)c(O)c(C(C)(C)C)c1)Sc1cc(C(C)(C)C)c(OC[C@@H](O)[C@@H](O)[C@H](O)[C@@H](O)CO)c(C(C)(C)C)c1` [D-Glucitol, 6-O-[4-[[1-[[3,5-bis(1,1-dimethylethyl)-4-hydroxyphenyl]thio]-1-methylethyl]thio]-2,6-bis(1,1-dimethylethyl)phenyl]-], 15 µM. On to `CC(C)(Sc1cc(C(C)(C)C)c(O)c(C(C)(C)C)c1)Sc1cc(C(C)(C)C)c(O/C=C/C(=O)O)c(C(C)(C)C)c1` [2-Propenoic acid, 3-[4-[[1-[[3,5-bis(1,1-dimethylethyl)-4-hydroxyphenyl]thio]-1-methylethyl]thio]-2,6-bis(1,1-dimethylethyl)phenoxy]-, (E)-], for which the IC50 came out at 30 µM.

The same test, now with this note: TNF added with compound, incubated overnight (approximately 16 hours).
For `Cc1ccc(CSc2cc(C(C)(C)C)c(O)c(C(C)(C)C)c2)cc1` [2,6-di-tert-butyl-4-thio(4′-methylbenzyl)phenol], the IC50 was determined as 75 µM. Consider “Oxiranemethanol, α-[[[3-[[4-[[1-[[3,5-bis(1,1-dimethylethyl)-4-hydroxyphenyl]thio]-1-methylethyl]thio]-2,6-bis(1,1-dimethylethyl)phenoxy]methyl]oxiranyl]methoxy]methyl]-”, for which the half-maximal inhibitory concentration (IC50) amounted to 60 µM. `COc1c(C(C)(C)C)cc(SCc2ccc(C(F)(F)F)cc2)cc1C(C)(C)C` [2,6-di-tert-butyl-1-methoxy-4-thio(4′-trifluoromethyl)benzyl)benzene]: the IC50 is > 50 µM. Take `CC(C)(Sc1cc(C(C)(C)C)c(OC(=O)CN)c(C(C)(C)C)c1)Sc1cc(C(C)(C)C)c(OC(=O)CN)c(C(C)(C)C)c1` [Glycine, (1-methylethylidene)bis[bis[thio-2,6-bis(1,1-dimethylthyl)-4,1-phenylene]]ester, dihydrochloride]: the IC50 is > 50 µM.

As for `CN(C)c1ccc(CCOc2c(C(C)(C)C)cc(SC(C)(C)Sc3cc(C(C)(C)C)c(OCCc4ccc(N(C)C)cc4)c(C(C)(C)C)c3)cc2C(C)(C)C)cc1` [Benzenamine, 4,4′-[(1-methylethylidene)bis [thio[2,6-bis(1,1-dimethylethyl)-4,1-phenylene]oxy-2,1-ethanediyl]]bis[N,N-dimethyl-], the 50% inhibitory concentration (IC50) was > 50 µM.

For the compound `CC(C)(Sc1cc(C(C)(C)C)c(O)c(C(C)(C)C)c1)Sc1cc(C(C)(C)C)c(OCC2OC2CO)c(C(C)(C)C)c1` (centres unmarked) [Oxiranemethanol, 3-[[4-[[1-[[3,5-bis(1,1-dimethylethyl)-4-hydroxyphenyl]thio]-1-methylethyl]thio]-2,6-bis(1,1-dimethylethyl)phenoxy]methyl]-], the concentration for half-maximal inhibition (IC50) was > 100 µM. Turning to `CC(C)(Sc1cc(C(C)(C)C)c(O)c(C(C)(C)C)c1)Sc1cc(C(C)(C)C)c(OC(=O)CCC(=O)O)c(C(C)(C)C)c1` [Butanedioic acid, mono [4-[[1-[[3,5-bis(1,1-dimethylethyl)-4-hydroxyphenyl]thio]-1-methylethyl]thio]2,6-bis(1,1-dimethylethyl)phenyl] ester], the IC50 was 5.6 µM. Take `CC1(C)OC2OC(COc3c(C(C)(C)C)cc(SC(C)(C)Sc4cc(C(C)(C)C)c(O)c(C(C)(C)C)c4)cc3C(C)(C)C)C3OC(C)(C)OC3C2O1` [α-D-Galactopyranose, 6-O-[4-[[1-[[3,5-bis(1,1-dimethylethyl)-4-hydroxyphenyl]thio]-1-methylethyl]thio]-2,6-bis(1,1-dimethylethyl)phenyl]-1,2:3,4-bis-O-(1-methylethylidene)]: the IC50 amounted to 45 µM. Take `CC(C)(Sc1cc(C(C)(C)C)c(O)c(C(C)(C)C)c1)Sc1cc(C(C)(C)C)c(OCCCCN)c(C(C)(C)C)c1` [Phenol, 4-[[1-[[4-(4-aminobutoxy)-3,5-bis(1,1-dimethylethyl)phenyl]thio]-1-methylethyl]thio]2,6-bis(1,1-dimethylethyl)-]: the half-inhibitory concentration (IC50) amounted to 9 µM. With `CC(=O)OC(C)(C)CSc1cc(C(C)(C)C)c(O)c(C(C)(C)C)c1` [2,6-di-tert-butyl-4-thio(2′-acetoxy,2′-methylpropyl)phenol], the IC50 was determined as 50 µM. As for “Pentanedioic acid, (1-methylethylidene)bis(thio{2,6-bis(1,1-dimethylethyl)-4,1-phenylene)]ester”, the IC50 is > 50 µM.

Consider `CC(C)(Sc1cc(C(C)(C)C)c(O)c(C(C)(C)C)c1)Sc1cc(C(C)(C)C)c(OCC(O)C2CO2)c(C(C)(C)C)c1` (stereo not drawn) [Oxiranemethanol, α-[[4-[[1-[[3,5-bis(1,1-dimethylethyl)-4-hydroxyphenyl]thio]-1-methylethyl]thio]-2,6-bis(1,1-dimethylethyl)phenoxy]methyl]-], for which the half-inhibitory concentration (IC50) came to 45 µM.

In the case of `CC(C)(C)c1cc(SCc2ccc(F)cc2)cc(C(C)(C)C)c1O` [2,6-di-tert-butyl-4-thio(4′-fluorobenzyl)phenol], the IC50 was determined as 35 µM.

Still in this test, the particulars now being: at 50 μM.
For the compound `CC(C)(C)c1cc(SCCCS(=O)(=O)O)cc(C(C)(C)C)c1O` [2,6-di-tert-butyl-4-thio(3′-propanesulfonic acid)phenol], the “VCAM-1 inhibition at [μM]” value is recorded as 25% at 50. `CN(C)CCCOc1c(C(C)(C)C)cc(SC(C)(C)Sc2cc(C(C)(C)C)c(O)c(C(C)(C)C)c2)cc1C(C)(C)C` [Phenol, 4-[[1-[[4-[3-(dimethylamino)propoxy]-3,5-bis(1,1-dimethylethyl)phenyl]thio]-1-methylethyl]thio]-2,6-bis(1,1-dimethylethyl)-]: 50 µM produced 22% inhibition.

For `CC(C)(Sc1cc(C(C)(C)C)c(O)c(C(C)(C)C)c1)Sc1cc(C(C)(C)C)c(OC[C@H]2O[C@@H](O)[C@H](O)[C@@H](O)[C@@H]2O)c(C(C)(C)C)c1` [β-D-Glucopyranose, 6-O-[4-[[1-[[3,5-bis(1,1-dimethylethyl)-4-hydroxyphenyl]thio]-1-methylethyl]thio]-2,6-bis(1,1-dimethylethyl)phenyl]-], testing at 50 µM gave an inhibition of 30%.

For orientation: IC50 means the point on the concentration scale where inhibition reaches its midpoint. Broadly, the inhibition is the change of the read-out against control, counted positive when it falls. A low value points to a response near the control.

(Values after patent publication US20060058268A1, “Compounds and methods for treating diabetic vascular diseases” (priority 2004, published 2006).)
